Results taken from ChEMBL document CHEMBL5244236, “Antitumor activity and structure-activity relationship of heparanase inhibitors: Recent advances” (Eur J Med Chem, 2020).
pIC50: −log10 of the molar value.

Tests used:
[1] = Antiproliferative activity against mouse Lewis lung carcinoma cell line assessed as reduction in cell proliferation by MTT assay; type: functional, cell-based
[2] = Anti-invasive activity against mouse Lewis lung carcinoma cell line assessed as inhibition of cell invasion incubated for 24 hrs by transwell assay; type: functional, cell-based
HepG2 [3] = assay: Anti-invasive activity against human HepG2 assessed as inhibition of cell invasion incubated for 48 hrs by transwell assay; type: functional, cell-based; settings: HepG2, 48 h
[4] = Antimigratory activity against mouse Lewis lung carcinoma cell line assessed as inhibition of cell migration incubated for 24 hrs by Wound healing assay; type: functional, cell-based
HepG2 [5] = assay: Antiproliferative activity against human HepG2 assessed as reduction in cell proliferation by MTT assay; type: functional, cell-based
HepG2 [6] = assay: Antimigratory activity against human HepG2 assessed as inhibition of cell migration incubated for 48 hrs by Wound healing assay; type: functional, cell-based; settings: HepG2, 48 h
Heparanase [7] = molecular target: T1, Heparanase (Homo sapiens, UniProt Q9Y251); assay: Inhibition of HPSE (unknown origin)
T1 sequence (Q9Y251 whole entry): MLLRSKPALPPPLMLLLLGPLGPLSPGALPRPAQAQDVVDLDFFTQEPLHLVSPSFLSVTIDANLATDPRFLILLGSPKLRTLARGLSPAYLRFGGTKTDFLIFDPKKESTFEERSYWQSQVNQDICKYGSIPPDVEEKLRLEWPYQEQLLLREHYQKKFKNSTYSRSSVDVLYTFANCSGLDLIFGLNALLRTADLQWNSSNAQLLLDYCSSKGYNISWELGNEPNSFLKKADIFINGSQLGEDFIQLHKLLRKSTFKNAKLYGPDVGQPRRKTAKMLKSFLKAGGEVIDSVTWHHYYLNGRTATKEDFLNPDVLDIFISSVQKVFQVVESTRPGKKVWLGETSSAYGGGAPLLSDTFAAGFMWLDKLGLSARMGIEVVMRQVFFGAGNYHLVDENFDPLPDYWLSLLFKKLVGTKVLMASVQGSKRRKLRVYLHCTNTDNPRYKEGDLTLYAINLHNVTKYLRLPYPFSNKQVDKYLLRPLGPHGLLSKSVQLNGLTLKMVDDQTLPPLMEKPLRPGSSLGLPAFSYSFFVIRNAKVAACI

HT-1080 [8] = assay: Anti-invasive activity against human HT-1080 cells assessed as inhibition of cell invasive
HT-1080 [9] = assay: Antimigratory activity against human HT-1080 cells assessed as inhibition of cell migration
B16-F10 = assay: Inhibition of cell migration in mouse B16-F10 cells by wound healing assay
Heparanase [10] = molecular target: T1, Heparanase; assay: Inhibition of human HPSE assessed as residual amount of heparin using porcine heparin as substrate preincubated for 5 mins followed by substrate addition and measured after 15 mins by spectrophotometric analysis
[11] = Antiangiogenic activity in bFGF-stimulated human microvascular endothelial cells assessed as inhibition of cell growth incubated for 72 hrs; type: functional, cell-based, Cardiac microvascular endothelial cell
[12] = Antiangiogenic activity in VEGF-stimulated human endothelial cells assessed as inhibition of cell growth and measured after 11 days by immunohistochemical staining based analysis; settings: 264 h

**Q.** With Oc1c(I)cc(I)cc1-c1nn2c(-c3ccccc3)nnc2s1 as the compound, how does the pIC50 [1] read?
**A.** Its pIC50 is 4.92.

**Q.** What about the pIC50 [2] of the same compound?
**A.** Its pIC50 is 5.30.

**Q.** And the pIC50 (HepG2 [3])?
**A.** Its pIC50 is 5.30.

**Q.** What about the pIC50 [4] of the same compound?
**A.** Its pIC50 is 5.30.

**Q.** What about the pIC50 (HepG2 [5]) of the same compound?
**A.** The pIC50 was 5.08.

**Q.** And the pIC50 (HepG2 [6])?
**A.** The pIC50 was 5.30.

**Q.** With CCCCCCCCCCCCCCCC(=O)C1=C(OC(C)C)[C@@H](CO)OC1=O as the compound, how does the pIC50 (Heparanase [7]) read?
**A.** Its pIC50 is < 4.00.

**Q.** With CCCCCCCCCCCCCCCC(=O)C1=C(OCc2ccccc2)[C@@H](CO)OC1=O as the compound, how does the pIC50 (HT-1080 [8]) read?
**A.** The pIC50 was 5.52.

**Q.** What about the pIC50 (HT-1080 [9]) of the same compound?
**A.** The pIC50 was 5.52.

**Q.** With CCCCCCCCCCCCCCCc1cc(O[C@@H]2O[C@H](C(=O)OC)[C@@H](O)[C@H](O)[C@H]2O)cc(O)c1C(=O)Oc1cc(C)c(C(=O)O)c(O)c1 as the compound, how does the pIC50 (B16-F10) read?
**A.** Its pIC50 is 4.52.

**Q.** Which results are given for CCCCCCCCCCCCCCCc1cc(O[C@@H]2O[C@H](C(=O)O)[C@@H](O)[C@H](O)[C@H]2O)cc(O)c1C(=O)Oc1cc(C)c(C(=O)O)c(O)c1?
**A.** pIC50 (Heparanase [10]): 5.52; pIC50 (B16-F10): 4.82

**Q.** With Cc1ccc(C(=O)Nc2ccc(S(=O)(=O)O)c3cc(S(=O)(=O)O)cc(S(=O)(=O)O)c23)cc1NC(=O)c1cccc(NC(=O)Nc2cccc(C(=O)Nc3cc(C(=O)Nc4ccc(S(=O)(=O)O)c5cc(S(=O)(=O)O)cc(S(=O)(=O)O)c45)ccc3C)c2)c1 [SURAMIN] as the compound, how does the pIC50 [11] read?
**A.** Its pIC50 is 6.27.

**Q.** With O=C(O)c1ccc2c(c1)C(=O)N(c1cccc(-c3nc4ccccc4o3)c1)C2=O as the compound, how does the pIC50 [12] read?
**A.** Its pIC50 is 4.40.

**Q.** With CCCCCCCCCCCCCCCC(=O)C1=C(OC)[C@@H](CO)OC1=O as the compound, how does the pIC50 (Heparanase [7]) read?
**A.** Its pIC50 is < 4.00.
